# Reference: the supplement of paper PMC10307832
# Tests used:
# Assay in all cases: relative viability (nuclei count vs DMSO), 5 days (fraction); higher = more cells survive
# [1] = compound: CN(c1ncccc1CNc1nc(Nc2ccc3c(c2)CC(=O)N3)ncc1C(F)(F)F)S(C)(=O)=O + O=C(c1cc(Cc2n[nH]c(=O)c3ccccc23)ccc1F)N1CCN(C(=O)C2CC2)CC1 [Olaparib] (partner 8 µM)
# Procedure, shortened: (§1)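 Five library-drug doses in √10 steps were combined with a fixed anchor-drug dose, or a single drug was given alone, by pin tool to lung cancer cell lines in 1536-well plates the day after seeding. Nuclei were stained and counted after 5 days. Relative viability is the nuclei count in treated wells over that in vehicle wells, taken as the median of duplicate plates.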
# [2] = compound: CN(c1ncccc1CNc1nc(Nc2ccc3c(c2)CC(=O)N3)ncc1C(F)(F)F)S(C)(=O)=O + NC(=O)Nc1cc(-c2cccc(F)c2)sc1C(=O)N[C@H]1CCCNC1 [AZD7762] (partner 0.2 µM)
# Procedure, shortened: as §1
# [3] = compound: CN(c1ncccc1CNc1nc(Nc2ccc3c(c2)CC(=O)N3)ncc1C(F)(F)F)S(C)(=O)=O + CS(=O)(=O)CCNCc1ccc(-c2ccc3ncnc(Nc4ccc(OCc5cccc(F)c5)c(Cl)c4)c3c2)o1 [Lapatinib] (partner 2 µM)
# Procedure, shortened: as §1
# [4] = compound: CN(c1ncccc1CNc1nc(Nc2ccc3c(c2)CC(=O)N3)ncc1C(F)(F)F)S(C)(=O)=O + Nc1ncn([C@H]2C[C@H](O)[C@@H](CO)O2)c(=O)n1 [Decitabine] (partner 2 µM)
# Procedure, shortened: as §1
Cell Line,relative viability ([1]; first compound 0.01 µM),relative viability ([1]; first compound 0.03162 µM),relative viability ([1]; first compound 0.1 µM),relative viability ([1]; first compound 0.3162 µM),relative viability ([1]; first compound 1 µM),relative viability ([2]; first compound 0.01 µM),relative viability ([2]; first compound 0.03162 µM),relative viability ([2]; first compound 0.1 µM),relative viability ([2]; first compound 0.3162 µM),relative viability ([2]; first compound 1 µM),relative viability ([3]; first compound 0.01 µM),relative viability ([3]; first compound 0.03162 µM),relative viability ([3]; first compound 0.1 µM),relative viability ([3]; first compound 0.3162 µM),relative viability ([3]; first compound 1 µM),relative viability ([4]; first compound 0.01 µM),relative viability ([4]; first compound 0.03162 µM),relative viability ([4]; first compound 0.1 µM),relative viability ([4]; first compound 0.3162 µM),relative viability ([4]; first compound 1 µM)
201T,0.827,0.887,0.814,0.776,0.779,0.617,0.582,0.688,0.654,0.604,1.08,1,0.962,0.924,0.988,0.846,0.856,0.808,0.85,0.771
A-427,0.752,0.738,0.651,0.741,0.651,0.798,0.81,0.874,1.14,0.907,1.05,1.05,1,1.04,1.02,0.549,0.568,0.588,0.664,0.61
ABC-1,0.813,1.08,1.42,0.893,1.06,0.838,0.86,0.825,0.803,1.08,1.29,1.15,1.36,1.13,1.21,1.01,1.17,0.949,0.944,1.09
BEN,0.961,1.27,1.26,1.18,1.1,0.721,0.709,0.73,0.774,0.563,0.699,0.689,0.654,0.715,0.686,0.739,0.739,0.715,0.763,0.671
CAL-12T,0.766,0.697,0.619,0.775,0.636,0.677,0.603,0.559,0.647,0.633,0.65,0.663,0.43,0.591,0.627,–,–,–,–,–
COR-L23,0.382,0.344,0.33,0.305,0.278,–,–,–,–,–,0.924,1.16,0.92,0.883,0.628,0.417,0.493,0.44,0.503,0.399
COR-L 105,0.794,0.709,0.728,0.645,0.522,–,–,–,–,–,0.335,0.387,0.355,0.355,0.341,0.762,0.68,0.728,0.733,0.697
Calu-6,0.581,0.581,0.535,0.498,0.453,–,–,–,–,–,1.05,1.12,1,1,0.912,–,–,–,–,–
ChaGo-K-1,0.453,0.397,0.4,0.401,0.355,0.932,0.856,0.873,0.917,0.853,–,–,–,–,–,0.565,0.549,0.438,0.527,0.492
EKVX,0.833,0.796,0.798,0.772,0.676,0.723,0.676,0.747,0.838,0.748,0.182,0.188,0.218,0.119,0.514,0.372,0.327,0.301,0.342,0.335
EMC-BAC-2,0.508,0.495,0.488,0.464,0.464,1.17,1.08,1.1,1.11,1.14,0.956,0.902,0.876,0.899,0.838,0.994,1.02,0.915,0.963,0.982
EPLC-272H,0.699,0.544,0.821,0.871,0.506,0.273,0.174,0.211,0.331,0.291,0.921,0.914,0.884,0.965,1.09,0.367,0.339,0.357,0.397,0.336
H3255,0.623,0.611,0.554,0.547,0.445,0.938,0.871,0.935,0.934,0.81,0.24,0.221,0.237,0.192,0.252,0.633,0.587,0.572,0.552,0.615
HARA,0.895,0.75,0.685,1.1,0.9,0.49,0.351,0.368,0.355,0.455,0.763,0.692,0.616,0.678,0.665,0.66,0.599,0.492,0.597,0.573
HCC-15,0.778,0.799,0.713,0.661,0.619,1.31,1.39,1.04,1.23,1.21,0.876,0.905,0.72,0.775,0.723,0.639,0.629,0.548,0.496,0.523
HCC-44,0.959,0.978,0.917,0.875,0.904,0.948,1.02,0.969,0.967,0.964,1.09,0.986,0.987,0.993,0.972,0.871,0.956,0.898,0.977,0.996
HCC-78,0.856,0.999,0.783,0.797,0.714,0.859,0.646,0.644,0.565,0.521,1.09,0.748,0.708,0.713,0.329,0.755,0.699,0.719,0.636,0.697
HCC-366,0.351,0.376,0.347,0.292,0.352,0.378,0.329,0.319,0.288,0.34,1,1.11,1.05,1.06,0.971,0.332,0.369,0.327,0.354,0.307
HCC-827,0.635,0.557,0.647,0.707,0.705,0.202,0.227,0.25,0.284,0.331,0.186,0.149,0.215,0.177,0.182,0.284,0.309,0.348,0.413,0.391
HOP-62,0.526,0.421,0.326,0.363,0.384,0.742,0.776,0.531,0.75,0.628,1.06,1.1,1.02,1.09,0.903,0.208,0.212,0.256,0.211,0.245

Cell Line,relative viability ([1]; first compound 0.01 µM),relative viability ([1]; first compound 0.03162 µM),relative viability ([1]; first compound 0.1 µM),relative viability ([1]; first compound 0.3162 µM),relative viability ([1]; first compound 1 µM),relative viability ([2]; first compound 0.01 µM),relative viability ([2]; first compound 0.03162 µM),relative viability ([2]; first compound 0.1 µM),relative viability ([2]; first compound 0.3162 µM),relative viability ([2]; first compound 1 µM),relative viability ([3]; first compound 0.01 µM),relative viability ([3]; first compound 0.03162 µM),relative viability ([3]; first compound 0.1 µM),relative viability ([3]; first compound 0.3162 µM),relative viability ([3]; first compound 1 µM),relative viability ([4]; first compound 0.01 µM),relative viability ([4]; first compound 0.03162 µM),relative viability ([4]; first compound 0.1 µM),relative viability ([4]; first compound 0.3162 µM),relative viability ([4]; first compound 1 µM)
IA-LM,0.758,0.959,0.802,–,0.66,–,–,–,–,–,0.884,0.82,0.887,0.608,0.56,–,–,–,–,–
LCLC-103H,0.724,0.742,0.78,0.693,0.669,0.72,0.711,0.734,0.745,0.815,–,–,–,–,–,0.68,0.673,0.697,0.672,0.684
NCI-H441,0.633,0.592,0.466,0.486,0.408,1.07,1.11,1.04,1.18,1.22,–,–,–,–,–,0.3,0.25,0.264,0.261,0.224
NCI-H520,0.325,0.318,0.35,0.394,0.423,–,–,–,–,–,0.917,1.02,0.845,0.838,1.04,0.549,0.655,0.484,0.49,0.549
NCI-H522,0.55,0.594,0.575,0.693,0.763,0.798,0.979,0.737,0.87,0.764,–,–,–,–,–,0.553,0.685,0.649,0.644,0.637
NCI-H661,0.727,0.85,0.74,0.771,0.7,–,–,–,–,–,0.481,0.496,0.652,0.534,0.637,0.551,0.649,0.589,0.56,0.568
NCI-H1563,–,–,–,–,–,–,–,–,–,–,0.906,0.839,0.857,0.942,1.07,–,–,–,–,–
NCI-H1648,0.874,0.886,0.918,0.48,0.46,0.66,0.588,0.535,0.551,0.677,–,–,–,–,–,0.6,0.476,0.426,0.485,0.367
NCI-H1650,0.753,0.783,0.784,0.672,0.675,–,–,–,–,–,0.78,0.9,0.805,–,0.592,0.502,0.474,0.513,0.426,0.47
NCI-H1703,0.393,0.388,0.368,0.526,0.389,0.131,0.18,0.124,0.127,0.118,1.05,1.13,1.27,1.41,1.01,–,–,–,–,–
NCI-H2009,0.651,0.707,0.684,0.681,0.679,–,–,–,–,–,1.38,0.959,0.891,0.897,0.903,0.425,0.362,0.372,0.4,0.448
NCI-H2023,0.458,0.476,0.467,0.359,0.407,–,–,–,–,–,0.855,0.976,0.781,0.908,0.761,0.23,0.259,0.218,0.234,0.202
NCI-H2228,0.619,1.01,0.665,0.766,0.539,–,–,–,–,–,0.835,0.914,1.02,1.07,1.08,–,–,–,–,–
NCI-H2342,0.494,0.503,0.471,0.352,0.398,0.506,0.516,0.472,0.402,0.404,–,–,–,–,–,0.802,0.728,0.631,0.742,0.717
SK-LU-1,0.411,0.433,0.38,0.408,0.445,–,–,–,–,–,0.885,1.13,0.912,0.722,0.874,0.641,0.689,0.636,0.639,0.576
SK-MES-1,0.718,0.76,0.731,0.538,0.499,–,–,–,–,–,0.456,0.456,0.473,0.422,0.474,0.441,0.467,0.465,0.36,0.363
SW 900,0.867,1.09,1.01,0.722,0.718,0.579,0.688,0.784,0.594,0.733,–,–,–,–,–,0.437,0.466,0.425,0.449,0.454
SW 1573,0.491,0.682,0.443,0.517,0.398,–,–,–,–,–,1.18,1.09,1.21,1.27,1.08,0.583,0.492,0.469,0.657,0.68
UMC-11,0.413,0.545,0.364,0.439,0.363,–,–,–,–,–,1.03,1.06,0.866,0.995,0.678,0.568,0.681,0.626,0.838,0.628
